PubChem BioAssay AID743418 (The Scripps Research Institute Molecular Screening Center, 2014)
Activity calls are given as the source filed them. The rule behind the calls is not given here.

Biological target: Sphingosine 1-phosphate receptor 2 (Homo sapiens) (UniProt O95136)
Experiment: agonism at human S1PR2 – cell-based, fluorescence, dose response, counter-screen for S1PR3 antagonist project, late-stage follow-up (AID 743418)
Details: S1P2-expressing cells, agonist-mode fluorescence read-out

Sequence of Sphingosine 1-phosphate receptor 2 (Homo sapiens) (O95136 whole entry, looked up): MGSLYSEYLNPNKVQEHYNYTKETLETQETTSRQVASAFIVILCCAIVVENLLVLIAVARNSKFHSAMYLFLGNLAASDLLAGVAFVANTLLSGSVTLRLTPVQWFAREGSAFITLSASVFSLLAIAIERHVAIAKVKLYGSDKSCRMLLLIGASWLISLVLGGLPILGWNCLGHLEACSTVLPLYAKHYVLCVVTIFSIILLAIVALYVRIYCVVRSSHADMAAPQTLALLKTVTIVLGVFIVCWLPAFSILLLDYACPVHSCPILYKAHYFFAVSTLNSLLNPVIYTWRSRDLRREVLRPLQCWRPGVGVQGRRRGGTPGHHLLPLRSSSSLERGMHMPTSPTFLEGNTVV

| EC50 | Structure (SMILES) |
| --- | --- |
| > 50 µM (inactive) | O=C(NC(c1ccccc1)c1nc(-c2ccccc2)no1)c1cccc(Cl)n1 (configuration not stated) |
| > 50 µM (inactive) | Cc1ccc(C(=O)NC(c2ccccc2)c2nc(-c3ccccc3)no2)cc1 (configuration not stated) |
| > 50 µM (inactive) | O=C(NC(c1cccc(Cl)c1)c1nc(-c2ccccc2)no1)c1ccc(Cl)c(Cl)c1 (configuration not stated) |
| > 50 µM (inactive) | O=C(NC(c1ccc(Cl)cc1)c1nc(-c2cccc(Cl)c2)no1)c1cccc(Cl)c1 (configuration not stated) |
| > 50 µM (inactive) | O=C(NC(c1cccc(Cl)c1)c1nc(-c2ccccc2)no1)c1cccc(Cl)c1 (configuration not stated) |
| > 50 µM (inactive) | O=C(NC(c1nc(-c2ccccc2)no1)C1CCOCC1)c1ccc(Cl)c(Cl)c1 (configuration not stated) |
| > 50 µM (inactive) | O=C(NC(c1ccc(Cl)cc1)c1nc(-c2ccccc2)no1)c1cccc(Br)c1 (configuration not stated) |
| > 50 µM (inactive) | COc1ccc(C(=O)NC(c2ccccc2)c2nc(-c3ccccc3)no2)cc1 (configuration not stated) |
| > 50 µM (inactive) | O=C(NC(c1ccc(Br)cc1)c1nc(-c2ccccc2)no1)c1ccc(Cl)c(Cl)c1 (configuration not stated) |
| > 50 µM (inactive) | CCc1ccc(C(NC(=O)c2cccc(Cl)c2)c2nc(-c3ccccc3)no2)cc1 (configuration not stated) |
| > 50 µM (inactive) | N#Cc1ccc(C(=O)NC(c2ccc(Cl)c(Cl)c2)c2nc(-c3ccccc3)no2)cc1 (configuration not stated) |
| > 50 µM (inactive) | O=C(NC(c1cccc(Cl)c1)c1nc(-c2ccccc2)no1)c1cc(Cl)cc(Cl)c1 (configuration not stated) |
| > 50 µM (inactive) | O=C(NC(c1ccc(Cl)c(Cl)c1)c1nc(-c2ccccc2)no1)c1ccc(Cl)c(Cl)c1 (configuration not stated) |
| > 50 µM (inactive) | O=C(c1cccc(Cl)c1)N(CCO)C(c1ccc(Cl)c(Cl)c1)c1nc(-c2ccccc2)no1 (configuration not stated) |
| > 50 µM (inactive) | O=C(NC(c1ccc(Cl)c(Cl)c1)c1nc(-c2ccccc2)no1)c1cccc(Cl)c1 (configuration not stated) |
| > 50 µM (inactive) | O=C(NC(c1ccccc1)c1nc(-c2ccccc2)no1)c1cccc(Br)c1 (configuration not stated) |
| > 50 µM (inactive) | O=C(NC(c1ccccc1)c1nc(-c2ccccc2)no1)c1cccc(Cl)c1 (configuration not stated) |
| > 50 µM (inactive) | O=C(NC(c1ccc(Cl)cc1)c1nc(-c2ccccc2)no1)c1ccc(Cl)c(Cl)c1 (configuration not stated) |
| > 50 µM (inactive) | O=C(NC(c1nc(-c2ccccc2)no1)C1CCCCC1)c1ccc(Cl)c(Cl)c1 (configuration not stated) |
| > 50 µM (inactive) | O=C(NC(Cc1ccccc1)c1nc(-c2ccccc2)no1)c1cccc(Cl)c1 (configuration not stated) |
| > 50 µM (inactive) | O=C(NC(c1ccc(Cl)cc1)c1nc(-c2ccccc2)no1)c1ccc(Cl)c(Br)c1 (configuration not stated) |
| > 50 µM (inactive) | O=C(NC(c1ccc(Cl)c(Cl)c1)c1nc(-c2ccccc2)no1)c1ccc(Cl)cc1 (configuration not stated) |
| > 50 µM (inactive) | Cc1ccc(C(NC(=O)c2cccc(Cl)c2)c2nc(-c3ccccc3)no2)cc1 (configuration not stated) |
| > 50 µM (inactive) | O=C(NC(c1ccc(Cl)cc1)c1nc(-c2ccccc2)no1)c1cccc(Cl)c1 (configuration not stated) |
| > 50 µM (inactive) | O=C(NC(c1ccc(Cl)c(Cl)c1)c1nc(-c2ccccc2)no1)c1ccccc1 (configuration not stated) |
| > 50 µM (inactive) | O=C(NC(c1ccc(Cl)cc1)c1nc(-c2ccccn2)no1)c1cccc(Cl)c1 (configuration not stated) |
| > 50 µM (inactive) | O=C(NC(c1ccccc1)c1nc(-c2ccccc2)no1)c1ccc(Cl)cc1 (configuration not stated) |
